Experiment [1] addresses T1, V. vulnificus LuxO-C (Vibrio vulnificus, UniProt Q8CWJ5). As to conditions: pH 7.4, 23°C; turnover number versus LuxO-C concentration only in Figure 4A.
In experiment [2] the target is T1, V. vulnificus LuxO-C. The experiment can be described thus: NADH-coupled ATPase assay, fit to one-inhibitor-per-oligomer model. In kind it is biochemical. Further details: catalytic (C) domain only, R and D domains absent; C-terminal His6 tag; expressed in E. coli BL21(DE3); hexamer 173 kDa theoretical. As to conditions: competitive with ATP; 100 μM LuxO-C, 2 mM ATP, pH 7.4, 23°C, 4% DMSO; K is affinity relative to ATP (dimensionless ratio).

T1 sequence (Q8CWJ5 132-378): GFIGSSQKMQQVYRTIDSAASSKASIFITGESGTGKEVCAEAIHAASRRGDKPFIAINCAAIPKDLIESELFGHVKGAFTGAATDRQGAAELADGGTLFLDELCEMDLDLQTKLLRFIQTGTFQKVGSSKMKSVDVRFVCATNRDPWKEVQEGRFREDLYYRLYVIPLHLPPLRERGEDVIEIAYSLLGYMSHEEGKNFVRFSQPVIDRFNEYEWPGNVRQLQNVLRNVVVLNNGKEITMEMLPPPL

Turning to `Nc1ncnc2c1ncn2[C@@H]1O[C@H](COP(=O)(O)OP(=O)(O)OP(=O)(O)O)[C@@H](O)[C@H]1O` [ATP], at V. vulnificus LuxO-C [1], the “NADH-coupled ATPase assay” value was “V. vulnificus LuxO-C”.
For the compound AzaU, on V. vulnificus LuxO-C [2], the “K (= Kd^ATP / Kd^AzaU)” value is listed as 34 ± 2.
